Results taken from patent publication US20120214775A1, “Pharmaceutical Salts of 3-O-(3',3'-Dimethylsuccinyl) Betulinic Acid” (priority 2004, published 2012).
≈ marks a conversion by molar mass, not a printed value. Entries after “also recorded” stand apart in the source; their conditions may differ. Counter-ions that a name gives are not always drawn. Like-named read-outs stand apart in the source and are kept apart here.

Columns and labels:
[1] = Water solubility (summary statement); assay type: physicochemical
[2] = test system: HIV-1 replication in H9 lymphocyte cells; settings: cited from earlier work; for T.I.: acutely infected H9 lymphocytes; for therapeutic index (T.I.) / EC50: H9 lymphocyte cells
[3] = physchem; settings: thermodynamic from solid, Equilibrium solubility
[4] = Intravenous administration of DSB in rats (reference for bioavailability); assay type: in vivo; settings: rat, plasma, dose 10.4 mg/kg, read-out: AUCINF after intravenous administration
Experimental: Blood samples were collected by cardiac puncture (n=2 rats/formulation/time point) at the following times: 0.25, 0.5, 1, 2, 4, 6, 12, and 24 h. Bioavailabilities of the oral formulations were calculated as the ratio of the oral dose-adjusted AUCINF assuming proportionality of the dose adjustments to the dose adjusted AUCINF reported after intravenous administration (AUCINF=63.3 μg h/mL) from a study of DSB in rats.

[5] = physchem; settings: 25 °C
[6] = 25° C.
[7] = test system: HIV-1 NL4-3; assay: In vivo anti-HIV efficacy in the SCID-hu Thy/Liv mouse model of HIV infection; settings: for implant p24: untreated 440; for antiviral activity against NL4-3 (in words): twice-daily oral gavage at 100 and 150 mg/kg/day, SCID-hu Thy/Liv mice
[8] = Equilibrium solubility in selected solvents; settings: for solubility thermodynamic at 7 days: organic solvent or mixture, equilibration 7 days
[9] = highest dosage level (150 mg/kg/day), twice-daily oral gavage
[10] = once-daily oral gavage at 100 mg/kg/day

## C=C(C)[C@H]1CC[C@]2(C(=O)O)CC[C@@]3(C)[C@H](CC[C@H]4[C@@]5(C)CC[C@H](OC(=O)CC(C)(C)C(=O)O)C(C)(C)[C@H]5CC[C@]43C)[C@H]12 [DSB, 3-O-(3′,3′-dimethylsuccinyl) betulinic acid]
[1]
  solubility: ~100 µg/mL (≈ 171 µM)
[2]
  T.I.: more than 970,000
[3]; saline or isotonic
  solubility thermodynamic at 3 days: 1500 µg/mL (≈ 2560 µM)
[3]; water
  solubility thermodynamic at 3 days: 35.1 µg/mL (≈ 60 µM)
[4]
  AUC(0-inf): 63300 ng·h/mL

## C=C(C)[C@@H]1CC[C@]2(C(=O)O)CC[C@]3(C)[C@H](CC[C@@H]4[C@@]5(C)CC[C@H](OC(=O)CC(C)(C)C(=O)O)C(C)(C)[C@@H]5CC[C@]43C)[C@@H]12 [DSB-(NmG)2, di-(N-methyl-D-glucamine) salt of 3-O-(3′,3′-dimethylsuccinyl) betulinic acid]
[5]; pH 9.461, aqueous buffer
  solubility: 7540 µg/mL
[5]; pH 10.691, aqueous buffer
  solubility: 7460 µg/mL
[6]; basic and neutral conditions
  visual solubility: visibly soluble
[6]; strongly acid solutions
  visual solubility: visually insoluble
[7]; 100 mg/kg/day, twice-daily oral gavage
  implant p24: 69 pg p24 per 10^6 cells
[7]; [9]
  HIV-1 RNA reduction versus untreated mice: 97%
  implant p24: 14 pg p24 per 10^6 cells
[7]; highest dosage level (150 mg/kg/day), untreated 530
  MHC-I expression on CD4+CD8+ thymocytes: 250 mean fluorescence intensity
[7]; highest dosage level (150 mg/kg/day, started at 300), twice-daily oral gavage, 22 days, Thy/Liv implant
  p24 reduction versus untreated mice: 99%
[7]
  antiviral activity against NL4-3 (in words): potent, dose-dependent antiviral activity; also recorded: potent in vivo inhibitor of HIV-1 replication
[7]; listed as DSG-(NmG)2
  antiviral activity against NL4-3 (in words): potent in vivo inhibitor of HIV-1 replication
[8]; Deionized Water, equilibration 3 days
  Equilibrium solubility: >18000 µg/mL
[8]; aqueous buffer, thermodynamic from solid, Equilibrium solubility, 1% DMSO in HERG Buffer, equilibration 3 days
  solubility thermodynamic at 3 days: 87.1 µg/mL
[8]; aqueous buffer, thermodynamic from solid, Equilibrium solubility, HERG Buffer, equilibration 3 days
  solubility thermodynamic at 3 days: 17.8 µg/mL
[8]; thermodynamic from solid, Equilibrium solubility, Ethanol, solid may have precipitated on transfer
  solubility thermodynamic at 7 days: 25000 µg/mL
[8]; thermodynamic from solid, Equilibrium solubility, Methanol
  solubility thermodynamic at 7 days: 37000 µg/mL
[8]; thermodynamic from solid, Equilibrium solubility, PEG 400, compound may have precipitated on removal from water bath
  solubility thermodynamic at 7 days: 5120 µg/mL
[8]; thermodynamic from solid, Equilibrium solubility, Propylene glycol
  solubility thermodynamic at 7 days: > 255000 µg/mL
[8]; saline or isotonic, thermodynamic from solid, Equilibrium solubility, PSS (physiological salt solution), equilibration 3 days
  solubility thermodynamic at 3 days: 80.2 µg/mL
[8]; saline or isotonic, thermodynamic from solid, Equilibrium solubility, PSS + 0.1% DMSO, equilibration 3 days
  solubility thermodynamic at 3 days: 108 µg/mL
[8]; saline or isotonic, thermodynamic from solid, Equilibrium solubility, PSS + 1% DMSO, equilibration 3 days
  solubility thermodynamic at 3 days: 108 µg/mL
[8]; water, thermodynamic from solid, Equilibrium solubility, Deionized Water, equilibration 3 days
  solubility thermodynamic at 3 days: > 18000 µg/mL
[8]; water, thermodynamic from solid, Equilibrium solubility, Deionized Water, equilibration 4 days
  solubility thermodynamic at 4 days: > 7000 µg/mL

## Nc1ccn([C@@H]2CS[C@H](CO)O2)c(=O)n1 [Group 3TC, lamivudine, reference compound]
[7]; [10]
  HIV-1 RNA reduction versus untreated mice: 96%
  thymocyte viability (live thymocytes): 71%
  implant p24: 35 pg p24 per 10^6 cells
[7]; once-daily oral gavage at 100 mg/kg/day (positive control)
  p24 reduction versus untreated mice: 97%

## CC(C)C1CCC2(C(=O)O)CCC3(C)C(CCC4C5(C)CCC(OC(=O)CC(C)(C)C(=O)O)C(C)(C)C5CCC43C)C12 (stereo not shown) [dihydrobetulinic acid analog]
[2]
  T.I.: more than 400,000

## CC(C)[C@@H]1CC[C@]2(C(=O)O)CC[C@]3(C)C(CCC4[C@@]5(C)CC[C@H](O)C(C)(C)C5CC[C@]43C)C12 (stereo partly shown) [dihydrobetulinic acid]
[2]
  therapeutic index (T.I.): 14
[2]; unit inferred, read-out: EC50, anti-HIV activity
  EC50: 0.9 µM

## CC(=O)[C@@H]1CC[C@]2(C(=O)O)CC[C@]3(C)[C@H](CC[C@@H]4[C@@]5(C)CC[C@H](O)C(C)(C)[C@@H]5CC[C@]43C)[C@@H]12 [platanic acid]
[2]
  therapeutic index (T.I.): 14
[2]; read-out: EC50, inhibitory activity against HIV-1 replication
  EC50: 6.5 µM
